In one data set the test system is JUNV-p. The data set can be described thus: organism not typed. The format is cell-based, Junin (JUNV). To be noted: Vero, 24 h, read-out: JUNV-p EC50 (nM).
The subject of another data set is LASV-p. The experiment in a line: organism not typed. The format is cell-based, Lassa (LASV). To be noted: Vero, 24 h, read-out: LASV-p EC50 (nM).
A short description of the next data set: in vitro. The conditions noted are these: African green monkey.
In another data set the test system is MACV-p. The data set can be described thus: organism not typed. The data set is classed as cell-based, Machupo (MACV). To be noted: Vero, 24 h, read-out: MACV-p EC50 (nM).
For the next data set, the system named is TCRV-p. The experiment in a line: organism not typed. The format is cell-based. To be noted: Vero, 24 h, read-out: TCRV-p EC50 (nM).

In general, EC50 refers to the concentration that produces a half-maximal response.

For the molecule `COc1ccc(-n2cnc3ccc(-c4cccc(C(C)C)c4)cc32)cc1` [Example A1, 1-(4-Methoxyphenyl)-6-[3-(propan-2-yl)phenyl]-1H-1,3-benzodiazole], the EC50 was greater than 100 nM with JUNV-p, 31.7 nM in the data set with LASV-p, greater than 100 nM with MACV-p and greater than 100 nM in the data set with TCRV-p. Moreover, the CC50 in “in vitro” stood at 12900 nM.
Consider `COc1ccc(-n2cnc3ccc(-c4ccc(C(C)C)cc4)cc32)cc1` [Example A2, 1-(4-methoxyphenyl)-6-[4-(propan-2-yl)phenyl]-1H-1,3-benzodiazole], for which the half-maximal effective concentration (EC50) in the data set with JUNV-p was greater than 100 nM; with LASV-p, 6.6 nM; in the data set on MACV-p it was greater than 100 nM; in the data set on TCRV-p, greater than 100 nM. The same molecule gave a CC50 in “in vitro” of 25600 nM.
With `COc1ccc(-c2ccc3ncn(-c4ccc(OC)cc4)c3c2)cc1` [Example A3, 1,6-bis(4-methoxyphenyl)-1H-1,3-benzodiazole], the EC50 in the data set with JUNV-p is greater than 25 nM; in the data set with LASV-p it was 7.6 nM; with MACV-p, greater than 25 nM; with TCRV-p, greater than 25 nM. In the data set “in vitro”, this molecule returned a CC50 of less than 300 nM.
For `COc1ccc(-n2cnc3ccc(-c4ccc(C#N)cc4)cc32)cc1` [Example A4, 4-[1-(4-methoxyphenyl)-1H-1,3-benzodiazol-6-yl]benzonitrile], the EC50 in the data set on JUNV-p, with LASV-p, with MACV-p and in the data set with TCRV-p was greater than 25 nM each time. Further, the CC50 in the data set “in vitro” is less than 300 nM.
Take `COc1ccc(-n2cnc3ccc(-c4ccccc4OC)cc32)cc1` [Example A5, 6-(2-methoxyphenyl)-1-(4-methoxyphenyl)-1H-1,3-benzodiazole]: the EC50 in the data set on JUNV-p, in the data set on LASV-p, in the data set on MACV-p and in the data set on TCRV-p was greater than 25 nM in each case. In addition, the CC50 in the data set “in vitro” was less than 300 nM.
In the case of `COc1ccc(-n2cnc3ccc(-c4cccc(OC)c4)cc32)cc1` [Example A6, 6-(3-methoxyphenyl)-1-(4-methoxyphenyl)-1H-1,3-benzodiazole], the EC50 with JUNV-p, in the data set with LASV-p, in the data set on MACV-p and with TCRV-p was greater than 25 nM throughout. For the same molecule, the CC50 in the data set “in vitro” was 9720 nM.
For `COc1ccc(-n2cnc3ccc(-c4ccc(CO)cc4)cc32)cc1` [Example A10, {4-[1-(4-methoxyphenyl)-1H-1,3-benzodiazol-6-yl]phenyl}methanol], the EC50 in the data set on JUNV-p is greater than 25 nM; with LASV-p it was 21.8 nM; in the data set with MACV-p, greater than 25 nM; with TCRV-p, greater than 25 nM. This molecule returned a CC50 in the data set “in vitro” of 4560 nM.
Consider `COc1ccc(-n2cnc3ccc(-c4ccc(O)cc4)cc32)cc1` [Example A13, 4-[1-(4-methoxyphenyl)-1H-1,3-benzodiazol-6-yl]phenol], for which the EC50 in the data set on JUNV-p is greater than 25 nM; in the data set with LASV-p, 5 nM; in the data set on MACV-p it was greater than 25 nM; in the data set with TCRV-p, greater than 25 nM. In addition, the CC50 in “in vitro” was 1270 nM.
On to `COc1ccc(-n2cnc3ccc(-c4ccc(C(C)=O)cc4)cc32)cc1` [Example A14, 1-{4-[1-(4-methoxyphenyl)-1H-1,3-benzodiazol-6-yl]phenyl}ethan-1-one], for which the EC50 in the data set on JUNV-p was greater than 25 nM; in the data set with LASV-p it was 7.4 nM; in the data set with MACV-p, greater than 25 nM; in the data set on TCRV-p, greater than 25 nM. The CC50 in “in vitro” was 1950 nM.
For the molecule `COc1ccc(-n2cnc3ccc(-c4ccc(N5CCCCC5)cc4)cc32)cc1` [Example A15, 1-(4-methoxyphenyl)-6-[4-(piperidin-1-yl)phenyl]-1H-1,3-benzodiazole], the EC50 amounted to 2.23 nM in the data set on JUNV-p, 14.7 nM in the data set with LASV-p, 24.9 nM in the data set with MACV-p and 29.6 nM in the data set on TCRV-p. The CC50 in the data set “in vitro” worked out at 12900 nM.
The matching figures for `CC(C)Oc1ccc(-n2cnc3ccc(-c4ccc(N5CCOCC5)cc4)cc32)cc1` [Example A21, 6-[4-(morpholin-4-yl)phenyl]-1-[4-(propan-2-yloxy)phenyl]-1H-1,3-benzodiazole]: 3.5 nM, 3.07 nM, 14.4 nM, greater than 25 nM and 5220 nM.
`CC(C)Oc1ccc(-c2ccc3ncn(-c4ccc5[nH]ccc5c4)c3c2)cc1` [Example A27, 1-(1H-indol-5-yl)-6-[4-(propan-2-yloxy)phenyl]-1H-1,3-benzodiazole]: the EC50 came out at 0.39 nM in the data set on JUNV-p, 0.6 nM with LASV-p, 0.38 nM in the data set on MACV-p and 2.57 nM in the data set on TCRV-p. For the same molecule, the CC50 in “in vitro” amounted to 3860 nM.
`CC(C)Oc1ccc(-c2cnc3ccc(-c4ccc(OC(C)C)cc4F)cn23)cc1` [Example C23, 6-[2-fluoro-4-(propan-2-yloxy)phenyl]-3-[4-(propan-2-yloxy)phenyl]imidazo[1,2-a]pyridine]: the EC50 in the data set on JUNV-p, in the data set with LASV-p, with MACV-p and in the data set with TCRV-p was greater than 25 nM each time.
As to `CC(C)Oc1ccc(-c2cnc3ccc(-c4ccc(OCCN5CCOCC5)cc4)cn23)cc1` [Example C25, 4-[2-(4-{3-[4-(propan-2-yloxy)phenyl]imidazo[1,2-a]pyridin-6-yl}phenoxy)ethyl]morpholine], the EC50 was no less than 25 nM with JUNV-p, greater than 25 nM with LASV-p, greater than 25 nM in the data set on MACV-p and greater than 25 nM in the data set on TCRV-p.
Consider `CC(C)Oc1ccc(-c2cnc3ccc(-c4ccc(C5(O)CNC5)cc4)cn23)cc1` [Example C29, 3-(4-{3-[4-(propan-2-yloxy)phenyl]imidazo[1,2-a]pyridin-6-yl}phenyl)azetidin-3-ol], for which the EC50 with JUNV-p, with LASV-p, with MACV-p and in the data set with TCRV-p was greater than 25 nM in each case.
Consider `CC(C)Oc1ccc(-c2ccc3ncc(-c4ccc5c(c4)CCO5)n3c2)cc1` [Example C34, 3-(2,3-dihydro-1-benzofuran-5-yl)-6-[4-(propan-2-yloxy)phenyl]imidazo[1,2-a]pyridine], for which the EC50 in the data set with JUNV-p was determined as 3.68 nM; in the data set with LASV-p, 4.73 nM; in the data set with MACV-p it was 25.1 nM; in the data set with TCRV-p, 16.5 nM.
The matching figures for `CC(C)Oc1ccc(-c2ccc3ncc(-c4ccc(C(F)F)cc4)n3c2)cc1` [Example C36, 3-[4-(difluoromethyl)phenyl]-6-[4-(propan-2-yloxy)phenyl]imidazo[1,2-a]pyridine]: 23.2 nM, 8.18 nM, greater than 25 nM and greater than 25 nM.
Regarding `CC(C)Oc1ccc(-c2ccc3ncc(-c4ccc(OCCN5CCOCC5)cc4)n3c2)cc1` [Example C43, 4-[2-(4-{6-[4-(propan-2-yloxy)phenyl]imidazo[1,2-a]pyridin-3-yl}phenoxy)ethyl]morpholine], the EC50 in the data set on JUNV-p, in the data set with LASV-p, in the data set with MACV-p and in the data set on TCRV-p was greater than 25 nM each time.
In the case of `CC(C)Oc1ccc(-c2ccc3ncc(-c4ccc(C(=O)O)cc4)n3c2)cc1` [Example C45, 4-{6-[4-(propan-2-yloxy)phenyl]imidazo[1,2-a]pyridin-3-yl}benzoic acid], the EC50 in the data set on JUNV-p, with LASV-p, in the data set on MACV-p and with TCRV-p was greater than 25 nM in each case.
In the case of `CC(C)Oc1ccc(-c2ccc3cnn(-c4ccc(OC(C)C)cc4)c3c2)cc1` [Example D1, 1,6-bis[4-(propan-2-yloxy)phenyl]-1H-indazole], the EC50 is 14 nM in the data set with JUNV-p, greater than 25 nM in the data set on LASV-p, greater than 25 nM in the data set on MACV-p and greater than 25 nM with TCRV-p.
With `CC(C)Oc1ccc(-c2ccc3ccn(-c4ccc(OC(C)C)cc4)c3c2)cc1` [Example D4, 1,6-bis[4-(propan-2-yloxy)phenyl]-1H-indole], the EC50 with JUNV-p was 8.1 nM; in the data set with LASV-p, greater than 25 nM; with MACV-p it was 16.9 nM; in the data set with TCRV-p it was greater than 25 nM.
`CC(C)Oc1ccc(-c2ccc3occ(-c4ccc(OC(C)C)cc4)c3c2)cc1` [Example D8, 3,5-bis[4-(propan-2-yloxy)phenyl]-1-benzofuran]: the EC50 in the data set with JUNV-p, in the data set on LASV-p, in the data set on MACV-p and in the data set on TCRV-p was greater than 25 nM throughout.
Turning to `CC(C)Oc1ccc(-c2coc3ccc(-c4ccc5[nH]ccc5c4)cc23)cc1` [Example D9, 5-{3-[4-(propan-2-yloxy)phenyl]-1-benzofuran-5-yl}-1H-indole], the EC50 with JUNV-p, in the data set with LASV-p, in the data set on MACV-p and with TCRV-p was greater than 25 nM each time.
As to `CC(=O)c1ccc(-c2cnc3cnc(-c4ccc(OC(C)C)cc4)cn23)cc1` [Example D14, 1-(4-{6-[4-(propan-2-yloxy)phenyl]imidazo[1,2-a]pyrazin-3-yl}phenyl)ethan-1-one], the EC50 with JUNV-p worked out at 13.5 nM; in the data set with LASV-p, 6.77 nM; with MACV-p, 25 nM; in the data set with TCRV-p, 20.2 nM.
Taken in the same sequence, the figures for `CC(C)Oc1ccc(-c2ccc3cnc(-c4ccc(OC(C)C)cc4)n3c2)cc1` [Example D17, 3,6-bis[4-(propan-2-yloxy)phenyl]imidazo[1,5-a]pyridine] were greater than 25 nM, greater than 25 nM, greater than 25 nM and greater than 25 nM.
Turning to `CCOC(=O)c1nc2ccc(-c3ccc(OC(C)C)cc3)cn2c1-c1ccc(OC(C)C)cc1` [Example D20, ethyl 3,6-bis[4-(propan-2-yloxy)phenyl]imidazo[1,2-a]pyridine-2-carboxylate], the EC50 in the data set with JUNV-p, in the data set with LASV-p, in the data set with MACV-p and with TCRV-p was greater than 25 nM throughout.
On to `CC(C)Oc1ccc(-c2ccc3nc(C(=O)O)c(-c4ccc(OC(C)C)cc4)n3c2)cc1` [Example D21, 3,6-bis[4-(propan-2-yloxy)phenyl]imidazo[1,2-a]pyridine-2-carboxylic acid], for which the EC50 with JUNV-p, with LASV-p, in the data set with MACV-p and in the data set on TCRV-p was greater than 25 nM each time.

(Values after patent US20220281825A1 (priority 2016, published 2022).)
